According to patent US10709709B2, “Substituted carbonucleoside derivatives useful as anticancer agents” (Pfizer Inc., priority 2016, dated 2020):

Each compound was assayed against PRMT5/MEP50 protein complex (Homo sapiens (Human), UniProt O14744) (assay: PRMT5 biochemical assay (3H-SAM methylation of H4(1-21) peptide, filter plate scintillation)). Settings: 10 nM PRMT5/MEP50 complex, 200 nM H4(1-21) peptide, 1 uM SAM, 25 minute incubation at room temperature.
Summary of the method: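 Human PRMT5/MEP50 complex (10 nM) methylating H4(1-21) peptide (200 nM) with 3H/unlabelled SAM (1 uM final) in pH 8.5 Tris buffer, 25 min at room temperature. Stopped with TCA, 3H-peptide captured on filter plates and scintillation-counted. IC50 from 4-parameter fit.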

PRMT5/MEP50 protein complex, sequence (O14744 other isoform, or with tags, fused parts or gaps): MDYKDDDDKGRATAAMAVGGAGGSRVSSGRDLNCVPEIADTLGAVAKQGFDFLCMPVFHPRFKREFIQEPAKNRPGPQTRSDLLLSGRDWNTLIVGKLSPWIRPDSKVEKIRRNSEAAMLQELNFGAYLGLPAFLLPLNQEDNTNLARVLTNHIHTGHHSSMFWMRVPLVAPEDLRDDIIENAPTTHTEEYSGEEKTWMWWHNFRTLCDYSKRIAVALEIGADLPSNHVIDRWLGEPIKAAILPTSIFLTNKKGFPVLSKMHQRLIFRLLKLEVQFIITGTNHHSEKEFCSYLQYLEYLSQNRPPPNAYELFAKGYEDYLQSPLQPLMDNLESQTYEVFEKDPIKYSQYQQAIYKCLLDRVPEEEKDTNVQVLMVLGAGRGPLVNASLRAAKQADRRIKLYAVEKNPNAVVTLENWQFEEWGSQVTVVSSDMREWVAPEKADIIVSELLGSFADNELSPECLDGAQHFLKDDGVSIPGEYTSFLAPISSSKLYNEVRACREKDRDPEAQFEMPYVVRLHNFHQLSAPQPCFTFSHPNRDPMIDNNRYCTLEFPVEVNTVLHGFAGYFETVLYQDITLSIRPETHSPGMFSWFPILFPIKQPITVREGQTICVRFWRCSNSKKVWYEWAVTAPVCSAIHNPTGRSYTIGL
PRMT5/MEP50 protein complex, sequence (Q9BQA1 whole entry partner): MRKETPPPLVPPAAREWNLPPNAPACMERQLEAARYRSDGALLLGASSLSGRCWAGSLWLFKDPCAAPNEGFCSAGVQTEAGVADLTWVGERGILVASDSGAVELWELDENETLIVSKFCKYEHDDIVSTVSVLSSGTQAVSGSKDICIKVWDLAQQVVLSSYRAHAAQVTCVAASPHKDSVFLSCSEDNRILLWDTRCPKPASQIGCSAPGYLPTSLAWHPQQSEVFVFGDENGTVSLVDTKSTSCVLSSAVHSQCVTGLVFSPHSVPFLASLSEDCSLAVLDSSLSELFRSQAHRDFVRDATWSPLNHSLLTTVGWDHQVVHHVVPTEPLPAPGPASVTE

| Structure (SMILES) | IC50 [µM] |
| --- | --- |
| Cc1ncnc2c1ccn2[C@@H]1C[C@H](Oc2cccc3c2[C@@H](N)CC3)[C@@H](O)[C@H]1O [Example 141, (1S,2S,3S,5R)-3-(((S)-3-amino-2,3-dihydro-1H-inden-4-yl)oxy)-5-(4-methyl-7H-pyrrolo[2,3-d]pyrimidin-7-yl)cyclopentane-1,2-diol] | 3.93 |
| Cc1ncnc2c1ccn2[C@@H]1C[C@H](Oc2cccc3c2[C@H](N)CC3)[C@@H](O)[C@H]1O [Example 142, (1S,2S,3S,5R)-3-(((R)-3-amino-2,3-dihydro-1H-inden-4-yl)oxy)-5-(4-methyl-7H-pyrrolo[2,3-d]pyrimidin-7-yl)cyclopentane-1,2-diol] | 0.011 |
| Cc1ncnc2c1ccn2[C@@H]1C[C@H](Oc2cccc(C(F)(F)F)c2CN)[C@@H](O)[C@H]1O [Example 144, (1S,2S,3S,5R)-3-(2-(aminomethyl)-3-(trifluoromethyl)phenoxy)-5-(4-methyl-7H-pyrrolo[2,3-d]pyrimidin-7-yl)cyclopentane-1,2-diol] | 0.077 |
| Cc1ncnc2c1ccn2[C@@H]1C[C@H](Oc2ccc(F)c(F)c2CN)[C@@H](O)[C@H]1O [Example 145, (1S,2S,3S,5R)-3-(2-(aminomethyl)-3,4-difluorophenoxy)-5-(4-methyl-7H-pyrrolo[2,3-d]pyrimidin-7-yl)cyclopentane-1,2-diol] | 0.011 |
| Cc1ncnc2c1ccn2[C@@H]1C[C@H](Oc2cc(Cl)c(Cl)cc2CN)[C@@H](O)[C@H]1O [Example 147, (1S,2S,3S,5R)-3-(2-(aminomethyl)-4,5-dichlorophenoxy)-5-(4-methyl-7H-pyrrolo[2,3-d]pyrimidin-7-yl)cyclopentane-1,2-diol] | 0.024 |
| Cc1ncnc2c1ccn2[C@@H]1C[C@H](Oc2ccc(Cl)cc2C(O)CN)[C@@H](O)[C@H]1O (stereo partly drawn) [Example 149, (1S,2S,3S,5R)-3-(2-(2-amino-1-hydroxyethyl)-4-chlorophenoxy)-5-(4-methyl-7H-pyrrolo[2,3-d]pyrimidin-7-yl)cyclopentane-1,2-diol] | 0.069 |
| Cc1ncnc2c1ccn2[C@@H]1C[C@H](Oc2ccc(Cl)c(Cl)c2CN)[C@@H](O)[C@H]1O [Example 150, (1S,2S,3S,5R)-3-(2-(aminomethyl)-3,4-dichlorophenoxy)-5-(4-methyl-7H-pyrrolo[2,3-d]pyrimidin-7-yl)cyclopentane-1,2-diol] | 0.071 |
| Cc1ncnc2c1ccn2[C@@H]1C[C@H](Oc2cc(Cl)c(Cl)cc2OCCN)[C@@H](O)[C@H]1O [Example 151, (1S,2S,3S,5R)-3-(2-(2-aminoethoxy)-4,5-dichlorophenoxy)-5-(4-methyl-7H-pyrrolo[2,3-d]pyrimidin-7-yl)cyclopentane-1,2-diol] | 0.078 |
| Cc1ncnc2c1ccn2[C@@H]1C[C@H](Oc2cc(F)c(F)cc2OCCN)[C@@H](O)[C@H]1O [Example 152, (1S,2S,3S,5R)-3-(2-(2-aminoethoxy)-4,5-difluorophenoxy)-5-(4-methyl-7H-pyrrolo[2,3-d]pyrimidin-7-yl)cyclopentane-1,2-diol] | 0.008 |
| Cc1ncnc2c1ccn2[C@@H]1C[C@H](Oc2ccc(Cl)cc2OCCN)[C@@H](O)[C@H]1O [Example 153, (1S,2S,3S,5R)-3-(2-(2-aminoethoxy)-4-chlorophenoxy)-5-(4-methyl-7H-pyrrolo[2,3-d]pyrimidin-7-yl)cyclopentane-1,2-diol] | 0.005 |
| Cc1cc(O[C@H]2C[C@@H](n3ccc4c(C)ncnc43)[C@H](O)[C@@H]2O)c2c(c1F)CCNC2 [Example 155, (1S,2S,3S,5R)-3-((5-fluoro-6-methyl-1,2,3,4-tetrahydroisoquinolin-8-yl)oxy)-5-(4-methyl-7H-pyrrolo[2,3-d]pyrimidin-7-yl)cyclopentane-1,2-diol] | 0.002 |
| Cc1ncnc2c1ccn2[C@@H]1C[C@H](Oc2ncnc3c2CNCC3)[C@@H](O)[C@H]1O [Example 156, (1S,2S,3R,5S)-3-(4-methyl-7H-pyrrolo[2,3-d]pyrimidin-7-yl)-5-((5,6,7,8-tetrahydropyrido[4,3-d]pyrimidin-4-yl)oxy)cyclopentane-1,2-diol] | 0.107 |
| Cc1ncnc2c1ccn2[C@@H]1C[C@H](Oc2nccc3c2CNCC3)[C@@H](O)[C@H]1O [Example 157, (1S,2S,3R,5S)-3-(4-methyl-7H-pyrrolo[2,3-d]pyrimidin-7-yl)-5-((5,6,7,8-tetrahydro-2,7-naphthyridin-1-yl)oxy)cyclopentane-1,2-diol] | 0.004 |
| Cc1nccc(O[C@@H]2C[C@H](Oc3cccc4c3CNCC4)[C@@H](O)[C@H]2O)n1 [Example 158, (1S,2R,3R,5S)-3-((2-methylpyrimidin-4-yl)oxy)-5-((1,2,3,4-tetrahydroisoquinolin-8-yl)oxy)cyclopentane-1,2-diol] | > 200 |
| Cc1ncnc2c1ccn2[C@@H]1C[C@H]([C@@H](O)c2ccc(Cl)c(F)c2)[C@@H](O)[C@H]1O [Example 161, (1S,2R,3R,5R)-3-((R)-(4-chloro-3-fluorophenyl)(hydroxy)methyl)-5-(4-methyl-7H-pyrrolo[2,3-d]pyrimidin-7-yl)cyclopentane-1,2-diol] | 0.201 |

The remaining lines, values ahead:

| IC50 [µM] | Structure (SMILES) |
| --- | --- |
| 0.042 | Nc1ncnc2c1c(F)cn2[C@@H]1C[C@H](Oc2cccc3ccncc23)[C@@H](O)[C@H]1O [Example 162] |
| > 200 | Cc1ncnc2c1ccn2[C@@H]1C[C@H](Oc2cccc3c2C(=O)NCCO3)[C@@H](O)[C@H]1O [Example 163, 6-(((1S,2S,3S,4R)-2,3-dihydroxy-4-(4-methyl-7H-pyrrolo[2,3-d]pyrimidin-7-yl)cyclopentyl)oxy)-3,4-dihydrobenzo[f][1,4]oxazepin-5(2H)-one] |
| 0.001 | Cc1ncnc2c1ccn2[C@@H]1C[C@H](Oc2cc(-c3cnco3)cc3c2CNCC3)[C@@H](O)[C@H]1O [Example 170, (1S,2S,3R,5S)-3-(4-methyl-7H-pyrrolo[2,3-d]pyrimidin-7-yl)-5-((6-(oxazol-5-yl)-1,2,3,4-tetrahydroisoquinolin-8-yl)oxy)cyclopentane-1,2-diol] |
| 0.014 | Cc1ncnc2c1ccn2[C@@H]1C[C@H](Oc2cc(-c3cc[nH]n3)cc3c2CNCC3)[C@@H](O)[C@H]1O [Example 171, (1S,2S,3S,5R)-3-((6-(1H-pyrazol-3-yl)-1,2,3,4-tetrahydroisoquinolin-8-yl)oxy)-5-(4-methyl-7H-pyrrolo[2,3-d]pyrimidin-7-yl)cyclopentane-1,2-diol] |
| 1.28 | Cc1ncnc2c1ccn2[C@@H]1C[C@H](Oc2cccc3ccncc23)[C@@H](O)[C@H]1O [Example 172, (1S,2S,3S,5R)-3-(isoquinolin-8-yloxy)-5-(4-methyl-7H-pyrrolo[2,3-d]pyrimidin-7-yl)cyclopentane-1,2-diol] |
| 0.001 | Cc1cn([C@@H]2C[C@H](Oc3cc(F)c(F)c4c3CNCC4)[C@@H](O)[C@H]2O)c2ncnc(N)c12 [Example 179, (1S,2S,3R,5S)-3-(4-amino-5-methyl-7H-pyrrolo[2,3-d]pyrimidin-7-yl)-5-((5,6-difluoro-1,2,3,4-tetrahydroisoquinolin-8-yl)oxy)cyclopentane-1,2-diol] |
| 0.001 | Cc1ncnc2c1ccn2[C@@H]1C[C@H](Oc2cc(C(F)F)c(F)c3c2CNCC3)[C@@H](O)[C@H]1O [Example 190, (1S,2S,3S,5R)-3-((6-(difluoromethyl)-5-fluoro-1,2,3,4-tetrahydroisoquinolin-8-yl)oxy)-5-(4-methyl-7H-pyrrolo[2,3-d]pyrimidin-7-yl)cyclopentane-1,2-diol] |
| 0.055 | CCOc1nc(O[C@H]2C[C@@H](n3ccc4c(C)ncnc43)[C@H](O)[C@@H]2O)c2c(c1F)CCNC2 [Example 192, (1S,2S,3S,5R)-3-((3-ethoxy-4-fluoro-5,6,7,8-tetrahydro-2,7-naphthyridin-1-yl)oxy)-5-(4-methyl-7H-pyrrolo[2,3-d]pyrimidin-7-yl)cyclopentane-1,2-diol] |
| 0.18 | Cc1ncnc2c1ccn2[C@@H]1C[C@H](Oc2nc(OC(C)C)c(F)c3c2CNCC3)[C@@H](O)[C@H]1O [Example 193, (1S,2S,3S,5R)-3-((4-fluoro-3-isopropoxy-5,6,7,8-tetrahydro-2,7-naphthyridin-1-yl)oxy)-5-(4-methyl-7H-pyrrolo[2,3-d]pyrimidin-7-yl)cyclopentane-1,2-diol] |
| 0.091 | CCOc1cc(O[C@H]2C[C@@H](n3ccc4c(C)ncnc43)[C@H](O)[C@@H]2O)c2c(c1F)CCNC2 [Example 199, (1S,2S,3S,5R)-3-((6-ethoxy-5-fluoro-1,2,3,4-tetrahydroisoquinolin-8-yl)oxy)-5-(4-methyl-7H-pyrrolo[2,3-d]pyrimidin-7-yl)cyclopentane-1,2-diol] |
| 0.31 | Cc1ncnc2c1ccn2[C@@H]1C[C@H](Oc2cc(OC(C)C)c(F)c3c2CNCC3)[C@@H](O)[C@H]1O [Example 201, (1S,2S,3S,5R)-3-((5-fluoro-6-isopropoxy-1,2,3,4-tetrahydroisoquinolin-8-yl)oxy)-5-(4-methyl-7H-pyrrolo[2,3-d]pyrimidin-7-yl)cyclopentane-1,2-diol] |
| 0.008 | Cc1ncnc2c1ccn2[C@@H]1C[C@H](Oc2cccc3c2CN[C@H](C)CO3)[C@@H](O)[C@H]1O [Example 208, (1S,2S,3S,5R)-3-(((R)-3-methyl-2,3,4,5-tetrahydrobenzo[f][1,4]oxazepin-6-yl)oxy)-5-(4-methyl-7H-pyrrolo[2,3-d]pyrimidin-7-yl)cyclopentane-1,2-diol] |
| 0.005 | Cc1ncnc2c1ccn2[C@@H]1C[C@H](Oc2cccc3c2CNC[C@@H](C)O3)[C@@H](O)[C@H]1O [Example 209, (1S,2S,3S,5R)-3-(((R)-2-methyl-2,3,4,5-tetrahydrobenzo[f][1,4]oxazepin-6-yl)oxy)-5-(4-methyl-7H-pyrrolo[2,3-d]pyrimidin-7-yl)cyclopentane-1,2-diol] |
